From patent US6723710B2, “Compositions for inhibiting arginase activity” (The Trustees of the University of Pennsylvania, priority 1997, dated 2004)
“Also recorded” adds a separate entry of the source.

Assays:
rat liver arginase [1] = target: T1, rat liver arginase (Rattus norvegicus, UniProt P07824); assay: [14C-guanidino]-arginine arginase activity assay (Example 2); assay type: biochemical; conditions: 100 millimolar CHES, pH 9.0, 1 millimolar arginine; read-out: IC50 for inhibition of arginase
T1 sequence (P07824 1-323): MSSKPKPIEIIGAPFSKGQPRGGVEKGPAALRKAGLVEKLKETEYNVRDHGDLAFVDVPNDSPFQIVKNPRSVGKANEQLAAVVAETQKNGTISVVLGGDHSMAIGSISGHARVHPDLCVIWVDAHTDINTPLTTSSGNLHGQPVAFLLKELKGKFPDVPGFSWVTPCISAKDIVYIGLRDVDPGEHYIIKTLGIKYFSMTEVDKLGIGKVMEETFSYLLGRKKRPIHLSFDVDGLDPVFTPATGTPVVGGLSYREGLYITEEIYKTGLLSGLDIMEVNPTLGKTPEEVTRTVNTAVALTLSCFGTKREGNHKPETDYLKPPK
Procedure: Arginase activity was assessed using the ^(14C-guanidino)-arginine assay of Rüegg et al. (1980, Anal. Biochem. 102:206-212), as described (Reczkowski et al., 1994, Arch. Biochem. Biophys. 312:31-37). […] […] et al., 1994, Biochem. Biophys. Res.

IAS arginase activity = assay: arginase activity in IAS homogenate; assay type: biochemical, opossum
Excerpt: (§1) Tissue samples of the opossum internal anal sphincter muscle (IAS), adjoining rectal tissue, liver, and brain were homogenized using an ULTRATURRAX™ tissue homogenizer (Tekamr, Cincinnati, Ohio) in a solution comprising 10 millimolar Tris-HCl, 150 millimolar KCl, and 25 millimolar MnCl2, at pH 7.4. The homogenates were dialyzed overnight against the same solution. Dialyzed homogenates were centrifuged to remove insoluble material and concentrated with Amicon CENTRICON™ 30 microconcentrators to yield stock protein preparations having protein concentrations of 2.4 milligrams per milliliter for IAS smooth muscle, 3.6 milligrams per milliliter for rectal smooth muscle, 3 milligrams per milliliter for brain, and 17.5 milligrams per milliliter for liver. Protein concentrations were estimated with the Pierce Coomassie Protein Reagent kit using bovine serum albumin as a standard.
(§2) Arginase activity in tissue homogenates was evaluated using the radioactive L-[guanidino^14C]arginine assay of Rüegg and Russell (1980, Anal. Biochem. 102:206-212). Assays were performed using a solution comprising 100 millimolar CHES-NaOH and 0.1 millimolar MnCl2 at pH 9.0. The reactions were initiated by addition of 5 microliters of tissue homogenate to 45 microliters of reaction mixture that contained the CHES buffer, the appropriate concentration of arginine (0.5 to 5 millimolar) and about 5.0×10^4 counts per minute of L-[guanidino-^14C]arginine. IAS, rectal muscle, and brain homogenates were incubated with the assay mixture at room temperature for one hour, and the liver sample was incubated for 5 minutes. […] Urea was separated from non-reacted L-[guanidino-^14C]arginine by treatment with 200 μl of 1:1 v/v slurry of DOWEX™ 50W-X8 in water, and quantitated by adding 200 microliters of the supernatant from the DOWEX™ treatment to 3 milliliters of LIQUISCENT™ (National Diagnostics) for liquid scintillation counting in a Beckman LS 5000CE counter. The data were analyzed using double-reciprocal plots of the initial velocity measurements; standard errors were determined by regression analysis. […]

brain arginase activity = assay: arginase activity in brain homogenate; assay type: biochemical, opossum
Excerpt: as §1, §2

NO synthase = target: T2, NO synthase (Homo sapiens, UniProt P29475); assay: Nitric Oxide Synthase-ABHA assay (NO2-/NO3- production); assay type: biochemical; conditions: 0.1 millimolar or 1.0 millimolar ABHA
T2 construct: purchased Biomol
T2 sequence (P29475 whole entry): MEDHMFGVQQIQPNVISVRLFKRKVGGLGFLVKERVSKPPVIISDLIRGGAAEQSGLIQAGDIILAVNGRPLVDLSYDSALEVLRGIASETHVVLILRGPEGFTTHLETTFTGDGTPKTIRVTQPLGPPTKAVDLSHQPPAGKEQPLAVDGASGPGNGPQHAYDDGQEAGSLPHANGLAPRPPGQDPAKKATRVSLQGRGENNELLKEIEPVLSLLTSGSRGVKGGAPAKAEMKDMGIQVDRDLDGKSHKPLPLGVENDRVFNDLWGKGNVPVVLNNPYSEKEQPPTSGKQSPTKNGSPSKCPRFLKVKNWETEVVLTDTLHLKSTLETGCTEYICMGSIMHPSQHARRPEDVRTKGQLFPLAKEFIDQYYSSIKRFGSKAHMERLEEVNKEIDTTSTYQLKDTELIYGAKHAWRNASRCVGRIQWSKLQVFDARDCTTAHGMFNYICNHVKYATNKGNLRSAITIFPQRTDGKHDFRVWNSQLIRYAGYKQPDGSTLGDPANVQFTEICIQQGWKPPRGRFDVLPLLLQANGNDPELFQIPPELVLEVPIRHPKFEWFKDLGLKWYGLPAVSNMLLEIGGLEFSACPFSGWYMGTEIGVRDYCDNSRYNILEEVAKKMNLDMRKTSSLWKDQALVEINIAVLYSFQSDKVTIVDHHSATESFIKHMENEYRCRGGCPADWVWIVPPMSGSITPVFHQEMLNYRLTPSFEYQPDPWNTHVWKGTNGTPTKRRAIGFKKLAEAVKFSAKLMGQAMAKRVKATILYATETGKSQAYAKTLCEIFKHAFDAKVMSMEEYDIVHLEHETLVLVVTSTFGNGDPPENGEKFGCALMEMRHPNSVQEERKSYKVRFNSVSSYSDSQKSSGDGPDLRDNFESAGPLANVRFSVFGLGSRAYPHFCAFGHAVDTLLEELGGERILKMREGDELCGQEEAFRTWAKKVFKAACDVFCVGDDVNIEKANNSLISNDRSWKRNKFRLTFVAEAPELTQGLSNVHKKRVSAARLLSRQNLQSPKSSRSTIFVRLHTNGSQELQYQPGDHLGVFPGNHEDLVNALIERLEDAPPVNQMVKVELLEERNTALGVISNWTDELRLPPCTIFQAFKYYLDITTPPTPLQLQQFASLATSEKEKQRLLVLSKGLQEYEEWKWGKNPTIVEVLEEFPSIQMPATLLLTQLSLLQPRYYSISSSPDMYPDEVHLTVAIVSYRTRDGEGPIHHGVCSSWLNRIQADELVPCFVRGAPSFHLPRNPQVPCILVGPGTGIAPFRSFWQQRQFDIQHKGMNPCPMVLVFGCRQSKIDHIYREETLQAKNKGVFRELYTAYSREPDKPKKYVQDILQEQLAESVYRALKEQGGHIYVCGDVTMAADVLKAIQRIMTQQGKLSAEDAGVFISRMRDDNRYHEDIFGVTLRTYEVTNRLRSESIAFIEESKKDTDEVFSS
Excerpt: NADPH, FAD, FMN, L-arginine, N-(2-hydroxyethyl)piperazine-N-2-ethanesulfonic acid (HEPES) (6R)-5,6,7,8-tetrahydro-L-biopterin (BH4), aminoguanidine, CaCl2, and phosphodiesterase cyclic nucleotide activator (calmodulin) were purchased from Sigma Chemical Company (St. Louis, Mo.). Neuronal NO synthase was purchased from Biomol, dialyzed to remove beta-mercaptoethanol, and concentrated to 0.1 milligram per milliliter. The nitric oxide synthase colorimetric assay kit was purchased from Calbiochem. Materials were used without further purification. The effect of ABHA on NO synthesis was assayed by monitoring the sum of NO2^− and NO3^− production, as described (Verdon et al., 1995, Anal. Biochem. 224:502-508). The enzyme solution was shaken at 37° C. for 15 minutes with 50 millimolar HEPES (pH 7.5), 100 micromolar NADPH, 4 micromolar FAD, 4 micromolar FMN, 6 micromolar BH4, 100 micromolar L-arginine, 0.0-1.0 millimolar ABHA, and 0.02 milligram per milliliter NO synthase in a final volume of 100 microliters. For experiments in which neuronal NO synthase was used, 1 millimolar CaCl2 and 100 micrograms per milliliter calmodulin were also added. Reactions were stopped by incubating the reaction mixture at 100° C. for 3 minutes. […] Absorbance at 540 nanometers was used to quantify the extent of NOx production.

rat liver arginase [2] = target: T1, rat liver arginase; assay: radioactive L-[guanidino-14C]arginine arginase assay (Example 3); assay type: biochemical; parameters: made in house; conditions: [14C-guanidino]-L-arginine assay, low inhibitor concentrations, assuming competitive inhibition; read-out: Ki (apparent)
Procedure: Assays were performed in 100 micromolar MnCl2, 100 millimolar CHES-NaOH (pH 9.0). The reactions were initiated by addition of 5 microliters of a circa 1 unit per milliliter enzyme solution to 45 microliters of reaction mixture containing CHES buffer, 1.4 millimolar L-arginine, about 5.0×10^4 counts per minute of L-[guanidino- ^14C]arginine, and variable concentrations of the appropriate inhibitor. After a 5-15 minute reaction time, 200 microliters of a stop solution containing 7 molar urea, 10 millimolar L-arginine, and 0.25 molar acetic acid (pH 4.5) was added to the reaction (arginase has essentially no activity under these conditions). [^14C]-Urea was separated from non-reacted L-[guanidino-^14 C]arginine by treatment with 200 microliters of a 1:1 (vol/vol) slurry of DOWEX™ 50 W-X8 in water, and quantitated by adding 200 microliters of the supernatant from the DOWEX™ treatment to 3 milliliters of LIQUISCINT™ (National Diagnostics) for liquid scintillation counting in a Beckman LS5000CE counter.

In the case of `N[C@@H](CCCCB(O)O)C(=O)O` [compound 7, 2(S)-amino-6-boronohexanoic acid], the IC50 (rat liver arginase [1]) is reported as 800 nM, the IC50 (IAS arginase activity; IAS, read-out: IC50 for inhibition of arginase activity, IAS homogenate) is reported as 100 nM and the Ki (IAS arginase activity; arginine fixed at Km, assuming competitive inhibition, read-out: estimated Ki, IAS arginase activity) is reported as 50 nM. For the same compound, the Ki (brain arginase activity; arginine fixed at Km, assuming competitive inhibition, read-out: estimated Ki, brain arginase activity) was 18 nM, the “times more potent than L-HO-Arg, brain” value (brain arginase activity; brain homogenate) was 800 times and the “inhibition of NO synthase” value (NO synthase) was “does not inhibit NO synthase; also recorded: no inhibition”. It also gave a Ki (rat liver arginase [2]) of 100 nM.
